These results are taken from the Kinase Knowledgebase extract (Sharma et al. 2016).

SMILES strings stand for the structures.

Broadly, the IC50 is the concentration at which inhibition is half-maximal. Low values mean greater potency, high ones weaker potency. One may read the inhibition as the drop in the measured response relative to a control, in per cent.

One assay addresses MAPK14 (human) (UniProt Q16539). Nature of the assay: In vitro Inhibition of TNF-alpha Production in PBMC Cells.
In the next assay the test system is MAPK14 (BALB/cJ mice). Nature of the assay: In vivo Inhibition of LPS-induced TNF-alpha Production. Conditions: dose or concentration not given here.

Chain of MAPK14 (human) (Q16539 whole entry, looked up): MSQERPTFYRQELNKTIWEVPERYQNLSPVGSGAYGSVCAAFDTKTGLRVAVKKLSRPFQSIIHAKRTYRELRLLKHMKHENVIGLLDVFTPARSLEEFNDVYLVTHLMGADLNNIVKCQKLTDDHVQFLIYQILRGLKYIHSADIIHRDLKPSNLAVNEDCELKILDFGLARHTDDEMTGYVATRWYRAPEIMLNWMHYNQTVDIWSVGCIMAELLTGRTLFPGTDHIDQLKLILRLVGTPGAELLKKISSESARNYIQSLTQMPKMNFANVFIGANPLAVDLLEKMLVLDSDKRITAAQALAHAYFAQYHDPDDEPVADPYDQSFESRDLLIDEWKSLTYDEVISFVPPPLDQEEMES

In turn, `COC(=O)CCCn1c(NCCN2CCOCC2)c(-c2ccncc2)c(-c2ccc(F)cc2)c1C(=O)OC` gave an IC50 at MAPK14 (human) of 0.029 µM. For the compound `COC(=O)c1c(-c2ccc(F)cc2)c(-c2ccncc2)cn1CCO`, the IC50 against MAPK14 (human) came out at 0.692 µM. On to `CCOC(=O)c1c(-c2cc(F)cc(F)c2)c(-c2ccncc2)c(N2CCNCC2)n1C`, for which, in the assay on MAPK14 (BALB/cJ mice), the inhibition worked out at 75%. In addition, the 50% inhibitory concentration (IC50) at MAPK14 (human) worked out at 0.093 µM. At MAPK14 (human), `COC(=O)c1c(-c2ccncc2)c(-c2ccc(F)cc2)c(N(C)CCN2CCOCC2)n1C` registered an IC50 of 3.51 µM. Take `CCOC(=O)N1CCN(c2c(-c3ccncc3)c(-c3ccc(F)cc3)c(C(=O)OC)n2C)CC1`: in the assay with MAPK14 (BALB/cJ mice), the inhibition worked out at 8%. The same compound returned an IC50 against MAPK14 (human) of 0.03 µM. In the case of `COC(=O)c1c(-c2ccc(F)cc2)c(-c2ccncc2)c(-c2ccc(N(C)C)cc2)n1C`, the inhibition in the assay with MAPK14 (BALB/cJ mice) is -22%. The compound also showed an IC50 on MAPK14 (human) of 0.12 µM.

Turning to `COC(=O)c1c(-c2ccc(F)cc2)c(-c2ccncc2)c(-c2cccc(NC(C)=O)c2)n1C`, the inhibition with MAPK14 (BALB/cJ mice) was 59%. This compound yielded an IC50 against MAPK14 (human) of 0.002 µM. For the compound `CN(C)C(=O)c1c(-c2ccc(F)cc2)c(-c2ccncc2)cn1C`, the inhibition in the assay with MAPK14 (BALB/cJ mice) is 33%. This compound also yielded an IC50 at MAPK14 (human) of 1.38 µM. Turning to `COC(=O)c1c(-c2ccc(F)cc2)c(-c2ccncc2)c(N(C)CCN2CCOCC2)n1C`, the half-maximal inhibitory concentration (IC50) against MAPK14 (human) amounted to 0.038 µM. That is a double-digit nanomolar value. As for `CN(CCO)Cc1[nH]cc(-c2ccc(F)cc2)c1-c1ccncc1`, the inhibition with MAPK14 (BALB/cJ mice) is -8%. In addition, the IC50 on MAPK14 (human) was 0.003 µM.

On to `COC(=O)c1c(-c2ccncc2)c(-c2ccc(F)cc2)c(NCCc2ccccc2)n1C`, for which the inhibition in the assay with MAPK14 (BALB/cJ mice) is 58%. The compound further returned a half-maximal inhibitory concentration (IC50) against MAPK14 (human) of 1.02 µM. For `COc1ccc(CNCc2[nH]cc(-c3ccncc3)c2-c2ccc(F)cc2)cc1`, the inhibition in the assay on MAPK14 (BALB/cJ mice) is -30%. The IC50 against MAPK14 (human) was 0.19 µM. For `COC(=O)c1c(-c2ccc(F)cc2)c(-c2ccncc2)cn1C(C)=O` the same measures were -32.1% and 0.194 µM. On to `COC(=O)c1c(-c2ccc(F)cc2)c(-c2ccncc2)c2n1CCC2C` (stereo unspecified), for which the IC50 on MAPK14 (human) was determined as 0.208 µM. This counts as sub-micromolar. In turn, `COC(=O)c1c(-c2ccc(F)cc2)c(-c2ccncc2)c(N(C)CCN2CCSCC2)n1C` had an IC50 against MAPK14 (human) of 0.183 µM. The IC50 values of the last two compounds are within 1.5-fold of each other. Take `CCOC(=O)c1[nH]cc(-c2ccncc2)c1-c1ccccc1`: the inhibition in the assay on MAPK14 (BALB/cJ mice) worked out at 58%. For the same compound, the IC50 at MAPK14 (human) turned out to be 0.149 µM. In turn, `O=C1CCn2cc(-c3ccncc3)c(-c3ccc(F)cc3)c21` registered an IC50 at MAPK14 (human) of 0.138 µM. In the case of `CC(=O)c1c(-c2ccc(F)cc2)c(-c2ccncc2)c(N2CCN(C)CC2)n1C`, the inhibition in the assay with MAPK14 (BALB/cJ mice) worked out at 40%. This compound also came in with an IC50 on MAPK14 (human) of 0.37 µM. As for `COC(=O)c1c(-c2ccncc2)c(-c2ccc(F)cc2)cn1C`, in the assay on MAPK14 (BALB/cJ mice), the inhibition is -56%. The compound also had a 50% inhibitory concentration (IC50) at MAPK14 (human) of 0.055 µM. For the compound `CCOC(=O)c1c(-c2cc(F)cc(F)c2)c(-c2ccncc2)cn1C`, in the assay with MAPK14 (BALB/cJ mice), the inhibition is -31%. On MAPK14 (human), this compound displayed a half-maximal inhibitory concentration (IC50) of 0.033 µM. As for `COC(=O)CCn1c(C#CCCO)c(-c2ccncc2)c(-c2ccc(F)cc2)c1C(=O)OC`, the half-inhibitory concentration (IC50) against MAPK14 (human) was found to be 5.28 µM. In other words, the single-digit micromolar range.

As for `C[C@H](Nc1nccc(-c2cn(CCN3CCOCC3)cc2-c2ccc(F)cc2)n1)c1ccccc1`, the inhibition with MAPK14 (BALB/cJ mice) is -21%. Moreover, at MAPK14 (human), the IC50 amounted to 0.004 µM. In the case of `COC(=O)c1c(-c2ccncc2)c(-c2ccc(F)cc2)c(C#CCCO)n1C`, in the assay on MAPK14 (BALB/cJ mice), the inhibition turned out to be 30%. In addition, the IC50 on MAPK14 (human) was determined as 0.894 µM.

Consider `COC(=O)c1c(-c2ccc(F)cc2)c(-c2ccncc2)c(N2CCc3ccccc3C2)n1C`, for which the inhibition in the assay with MAPK14 (BALB/cJ mice) amounted to 32%. This compound yielded an IC50 at MAPK14 (human) of 0.166 µM. On MAPK14 (human), `Cn1c(C(=O)c2ccccc2)c(-c2ccc(F)cc2)c(-c2ccncc2)c1N1CCNCC1` displayed an IC50 of 0.66 µM. For `COC(=O)c1c(-c2ccc(F)cc2)c(-c2ccncc2)c(NCc2ccc(OC)cc2)n1C`, the half-inhibitory concentration (IC50) against MAPK14 (human) came to 0.042 µM. With `COC(=O)c1c(-c2ccc(F)cc2)c(-c2ccncc2)c(NCCCN2CCOCC2)n1C`, in the assay on MAPK14 (BALB/cJ mice), the inhibition is 64%.

As for `CCCc1c(-c2ccnc(N[C@@H](C)COC)n2)c(-c2ccc(F)cc2)cn1CCN1CCOCC1`, the inhibition in the assay with MAPK14 (BALB/cJ mice) was -1%. Further, on MAPK14 (human), the IC50 came out at 0.001 µM. Regarding `OCc1[nH]cc(-c2ccc(F)cc2)c1-c1ccncc1`, in the assay on MAPK14 (BALB/cJ mice), the inhibition is -72%. Moreover, the IC50 against MAPK14 (human) was 0.101 µM.

Consider `COC(=O)c1c(-c2ccc(F)cc2)c(-c2ccncc2)c(Nc2cccc(NC(C)=O)c2)n1C`, for which, on MAPK14 (human), the 50% inhibitory concentration (IC50) was 0.021 µM. Regarding `CCN1CCCC1CNc1c(-c2ccncc2)c(-c2ccc(F)cc2)c(C(=O)OC)n1C` (stereo unspecified), the IC50 at MAPK14 (human) was determined as 7.75 µM. This IC50 lies about 370-fold higher than the previous one. On to `Cn1cc(-c2ccc(F)cc2)c(-c2ccncc2)c1CO`, for which the inhibition with MAPK14 (BALB/cJ mice) amounted to 65%. At MAPK14 (human), this compound had an IC50 of 0.169 µM.
